{"source": "patent US6358885B1", "about": "“Substituted phenylheterocyclic herbicides” (Mississippi State University, priority 1992, dated 2002)", "key": {"barley": {"tested_on": "barley", "test": "Test B preemergence/postemergence greenhouse plant response rating 0 to 10", "format": "in vivo, Hordeum vulgare", "conditions": "0 to 10 scale", "how_it_was_run": "(§1)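 Test chemicals, dissolved in a non-phytotoxic solvent, were applied to soil at planting and, at the same time, over foliage of seedlings at the one to four leaf stage.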"}, "barnyardgrass": {"tested_on": "barnyardgrass", "test": "Test C flood test plant response rating 0 to 100", "format": "in vivo, Echinochloa crus-galli", "how_it_was_run": "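Compounds in non-phytotoxic solvent applied preemergence to sandy loam one day after planting, postemergence at the 1–4 leaf stage, or to ~2.5 cm floodwater over silt loam.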"}, "bedstraw": {"tested_on": "bedstraw", "test": "Test B preemergence/postemergence greenhouse plant response rating 0 to 10", "format": "in vivo, Galium aparine", "conditions": "0 to 10 scale", "how_it_was_run": "as §1"}, "sugar beet": {"tested_on": "sugar beet", "test": "Test B preemergence/postemergence greenhouse plant response rating 0 to 10", "format": "in vivo, Beta vulgaris", "conditions": "0 to 10 scale", "how_it_was_run": "as §1"}, "wheat [1]": {"tested_on": "wheat", "test": "Test B preemergence/postemergence greenhouse plant response rating 0 to 10", "format": "in vivo, Triticum aestivum", "conditions": "0 to 10 scale", "how_it_was_run": "as §1"}, "wild oat [2]": {"tested_on": "wild oat", "test": "Test C preemergence/postemergence greenhouse plant response rating 0 to 100", "format": "in vivo, Avena fatua", "conditions": "POSTEMERGENCE", "how_it_was_run": "(§2)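 Compounds in non-phytotoxic solvent went onto sandy loam before emergence (seeded one day earlier) or onto plants at the one-to-four leaf stage. Duck salad was treated via flood water (~2.5 cm, maintained) over silt loam.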"}, "wheat [3]": {"tested_on": "wheat", "test": "Test C preemergence/postemergence greenhouse plant response rating 0 to 100", "format": "in vivo, Triticum aestivum", "conditions": "POSTEMERGENCE", "how_it_was_run": "as §2"}, "wild oat [4]": {"tested_on": "wild oat", "test": "Test B preemergence/postemergence greenhouse plant response rating 0 to 10", "format": "in vivo, Avena fatua", "conditions": "0 to 10 scale", "how_it_was_run": "as §1"}, "ryegrass": {"tested_on": "ryegrass", "test": "Test C preemergence/postemergence greenhouse plant response rating 0 to 100", "format": "in vivo, Lolium multiflorum", "conditions": "POSTEMERGENCE", "how_it_was_run": "as §2"}, "downy brome": {"tested_on": "downy brome", "test": "Test C preemergence/postemergence greenhouse plant response rating 0 to 100", "format": "in vivo, Bromus tectorum", "conditions": "POSTEMERGENCE", "how_it_was_run": "as §2"}, "sorghum [5]": {"tested_on": "sorghum", "test": "Test C preemergence/postemergence greenhouse plant response rating 0 to 100", "format": "in vivo, Sorghum bicolor", "conditions": "POSTEMERGENCE", "how_it_was_run": "as §2"}, "blackgrass": {"tested_on": "blackgrass", "test": "Test B preemergence/postemergence greenhouse plant response rating 0 to 10", "format": "in vivo, Alopecurus myosuroides", "conditions": "0 to 10 scale", "how_it_was_run": "as §1"}, "rape": {"tested_on": "rape", "test": "Test C preemergence/postemergence greenhouse plant response rating 0 to 100", "format": "in vivo, Brassica napus", "conditions": "POSTEMERGENCE", "how_it_was_run": "as §2"}, "crabgrass": {"tested_on": "crabgrass", "test": "Test C preemergence/postemergence greenhouse plant response rating 0 to 100", "format": "in vivo, Digitaria sanguinalis", "conditions": "POSTEMERGENCE", "how_it_was_run": "as §2"}, "wild buckwheat": {"tested_on": "wild buckwheat", "test": "Test C preemergence/postemergence greenhouse plant response rating 0 to 100", "format": "in vivo, Polygonum convolvulus", "conditions": "POSTEMERGENCE", "how_it_was_run": "as §2"}, "cotton": {"tested_on": "cotton", "test": "Test B preemergence/postemergence greenhouse plant response rating 0 to 10", "format": "in vivo, Gossypium hirsutum", "conditions": "0 to 10 scale", "how_it_was_run": "as §1"}, "sorghum [6]": {"tested_on": "sorghum", "test": "Test B preemergence/postemergence greenhouse plant response rating 0 to 10", "format": "in vivo, Sorghum bicolor", "conditions": "0 to 10 scale", "how_it_was_run": "as §1"}, "lambsquarters": {"tested_on": "lambsquarters", "test": "Test B preemergence/postemergence greenhouse plant response rating 0 to 10", "format": "in vivo, Chenopodium album", "conditions": "0 to 10 scale", "how_it_was_run": "as §1"}}}
{"smiles": "COCN1C(=O)COc2cc(F)c(-c3nn4c(c3Cl)CCCC4)cc21", "note": "[Compound 55]", "values": [{"measurement": "Plant response rating, Barley", "setting": "barley; POSTEMERGENCE, Rate 10 g/ha", "result": 5}, {"measurement": "Plant response rating, Barley", "setting": "barley; POSTEMERGENCE, Rate 50 g/ha", "result": 4}, {"measurement": "Plant response rating, Barley", "setting": "barley; PREEMERGENCE, Rate 10 g/ha", "result": 0}, {"measurement": "Plant response rating, Barley", "setting": "barley; PREEMERGENCE, Rate 50 g/ha", "result": 3}, {"measurement": "Plant response rating (0 to 100), Barnyardgrass 2", "setting": "barnyardgrass; POSTEMERGENCE section, flood test, Rate 1 g/ha", "result": 10}, {"measurement": "Plant response rating (0 to 100), Barnyardgrass 2", "setting": "barnyardgrass; POSTEMERGENCE section, flood test, Rate 4 g/ha", "result": 60}, {"measurement": "Plant response rating (0 to 100), Barnyardgrass 2", "setting": "barnyardgrass; Rate 16 g/ha, under POSTEMERGENCE head (flood test species)", "result": 90}, {"measurement": "Plant response rating Barnyardgrass 2", "setting": "barnyardgrass; flood test species listed under POSTEMERGENCE, 62 g/ha, 0 to 100 scale", "result": 100}, {"measurement": "Plant response rating, Bedstraw", "setting": "bedstraw; POSTEMERGENCE, Rate 10 g/ha", "result": 9}, {"measurement": "Plant response rating, Bedstraw", "setting": "bedstraw; POSTEMERGENCE, Rate 50 g/ha", "result": 10}, {"measurement": "Plant response rating, Bedstraw", "setting": "bedstraw; PREEMERGENCE, Rate 10 g/ha", "result": 3}, {"measurement": "Plant response rating, Bedstraw", "setting": "bedstraw; PREEMERGENCE, Rate 50 g/ha", "result": 10}, {"measurement": "Plant response rating, Sugar beet", "setting": "sugar beet; POSTEMERGENCE, Rate 10 g/ha", "result": 10}, {"measurement": "Plant response rating, Sugar beet", "setting": "sugar beet; POSTEMERGENCE, Rate 50 g/ha", "result": 10}, {"measurement": "Plant response rating, Sugar beet", "setting": "sugar beet; PREEMERGENCE, Rate 50 g/ha", "result": 10}, {"measurement": "Plant response rating, Wheat", "setting": "wheat [1]; POSTEMERGENCE, Rate 10 g/ha", "result": 8}, {"measurement": "Plant response rating, Wheat", "setting": "wheat [1]; POSTEMERGENCE, Rate 50 g/ha", "result": 6}, {"measurement": "Plant response rating, Wheat", "setting": "wheat [1]; PREEMERGENCE, Rate 50 g/ha", "result": 4}, {"measurement": "Plant response rating, Wild oat", "setting": "wild oat [2]; 62 g/ha, 0 to 100 scale", "result": 60}, {"measurement": "Plant response rating (0 to 100), Wild oat", "setting": "wild oat [2]; Rate 1 g/ha", "result": 20}, {"measurement": "Plant response rating (0 to 100), Wild oat", "setting": "wild oat [2]; Rate 4 g/ha", "result": 30}, {"measurement": "Plant response rating (0 to 100), Wild oat", "setting": "wild oat [2]; Rate 16 g/ha", "result": 40}, {"measurement": "Plant response rating, Wheat", "setting": "wheat [3]; 62 g/ha, 0 to 100 scale", "result": 60}, {"measurement": "Plant response rating (0 to 100), Wheat", "setting": "wheat [3]; Rate 1 g/ha", "result": 30}, {"measurement": "Plant response rating (0 to 100), Wheat", "setting": "wheat [3]; Rate 4 g/ha", "result": 40}, {"measurement": "Plant response rating (0 to 100), Wheat", "setting": "wheat [3]; Rate 16 g/ha", "result": 50}, {"measurement": "Plant response rating, Wild oat", "setting": "wild oat [4]; POSTEMERGENCE, Rate 10 g/ha", "result": 6}, {"measurement": "Plant response rating, Wild oat", "setting": "wild oat [4]; POSTEMERGENCE, Rate 50 g/ha", "result": 7}, {"measurement": "Plant response rating, Wild oat", "setting": "wild oat [4]; PREEMERGENCE, Rate 50 g/ha", "result": 9}, {"measurement": "Plant response rating Ryegrass", "setting": "ryegrass; 62 g/ha, 0 to 100 scale", "result": 60}, {"measurement": "Plant response rating (0 to 100), Ryegrass", "setting": "ryegrass; Rate 1 g/ha", "result": 10}, {"measurement": "Plant response rating (0 to 100), Ryegrass", "setting": "ryegrass; Rate 4 g/ha", "result": 30}, {"measurement": "Plant response rating (0 to 100), Ryegrass", "setting": "ryegrass; Rate 16 g/ha", "result": 40}, {"measurement": "Plant response rating Downy Brome", "setting": "downy brome; 62 g/ha, 0 to 100 scale", "result": 70}, {"measurement": "Plant response rating (0 to 100), Downy Brome", "setting": "downy brome; Rate 1 g/ha", "result": 30}, {"measurement": "Plant response rating (0 to 100), Downy Brome", "setting": "downy brome; Rate 4 g/ha", "result": 40}, {"measurement": "Plant response rating (0 to 100), Downy Brome", "setting": "downy brome; Rate 16 g/ha", "result": 60}, {"measurement": "Plant response rating, Sorghum", "setting": "sorghum [5]; 62 g/ha, 0 to 100 scale", "result": 60}, {"measurement": "Plant response rating (0 to 100), Sorghum", "setting": "sorghum [5]; Rate 1 g/ha", "result": 30}, {"measurement": "Plant response rating (0 to 100), Sorghum", "setting": "sorghum [5]; Rate 4 g/ha", "result": 40}, {"measurement": "Plant response rating (0 to 100), Sorghum", "setting": "sorghum [5]; Rate 16 g/ha", "result": 50}, {"measurement": "Plant response rating, Blackgrass", "setting": "blackgrass; POSTEMERGENCE, Rate 10 g/ha", "result": 5}, {"measurement": "Plant response rating, Blackgrass", "setting": "blackgrass; POSTEMERGENCE, Rate 50 g/ha", "result": 7}, {"measurement": "Plant response rating, Blackgrass", "setting": "blackgrass; PREEMERGENCE, Rate 10 g/ha", "result": 3}, {"measurement": "Plant response rating, Blackgrass", "setting": "blackgrass; PREEMERGENCE, Rate 50 g/ha", "result": 7}, {"measurement": "Plant response rating, Rape", "setting": "rape; 62 g/ha, 0 to 100 scale", "result": 100}, {"measurement": "Plant response rating (0 to 100), Rape", "setting": "rape; Rate 1 g/ha", "result": 60}, {"measurement": "Plant response rating (0 to 100), Rape", "setting": "rape; Rate 4 g/ha", "result": 100}, {"measurement": "Plant response rating (0 to 100), Rape", "setting": "rape; Rate 16 g/ha", "result": 100}, {"measurement": "Plant response rating, Crabgrass", "setting": "crabgrass; 62 g/ha, 0 to 100 scale", "result": 40}, {"measurement": "Plant response rating (0 to 100), Crabgrass", "setting": "crabgrass; Rate 1 g/ha", "result": 10}, {"measurement": "Plant response rating (0 to 100), Crabgrass", "setting": "crabgrass; Rate 4 g/ha", "result": 10}, {"measurement": "Plant response rating (0 to 100), Crabgrass", "setting": "crabgrass; Rate 16 g/ha", "result": 30}, {"measurement": "Plant response rating, Wild buckwheat", "setting": "wild buckwheat; 62 g/ha, 0 to 100 scale", "result": 100}, {"measurement": "Plant response rating (0 to 100), Wild buckwheat", "setting": "wild buckwheat; Rate 1 g/ha", "result": 60}, {"measurement": "Plant response rating (0 to 100), Wild buckwheat", "setting": "wild buckwheat; Rate 4 g/ha", "result": 100}, {"measurement": "Plant response rating (0 to 100), Wild buckwheat", "setting": "wild buckwheat; Rate 16 g/ha", "result": 100}, {"measurement": "Plant response rating, Cotton", "setting": "cotton; POSTEMERGENCE, Rate 10 g/ha", "result": 10}, {"measurement": "Plant response rating, Cotton", "setting": "cotton; POSTEMERGENCE, Rate 50 g/ha", "result": 10}, {"measurement": "Plant response rating, Cotton", "setting": "cotton; PREEMERGENCE, Rate 10 g/ha", "result": 6}, {"measurement": "Plant response rating, Cotton", "setting": "cotton; PREEMERGENCE, Rate 50 g/ha", "result": 1}, {"measurement": "Plant response rating, Sorghum", "setting": "sorghum [6]; POSTEMERGENCE, Rate 10 g/ha", "result": 3}, {"measurement": "Plant response rating, Sorghum", "setting": "sorghum [6]; POSTEMERGENCE, Rate 50 g/ha", "result": 4}, {"measurement": "Plant response rating, Sorghum", "setting": "sorghum [6]; PREEMERGENCE, Rate 50 g/ha", "result": 0}, {"measurement": "Plant response rating, Lambsquarter", "setting": "lambsquarters; POSTEMERGENCE, Rate 10 g/ha", "result": 10}, {"measurement": "Plant response rating, Lambsquarter", "setting": "lambsquarters; POSTEMERGENCE, Rate 50 g/ha", "result": 10}, {"measurement": "Plant response rating, Lambsquarter", "setting": "lambsquarters; PREEMERGENCE, Rate 50 g/ha", "result": 10}]}
